Source: PMC7180948, “New Insights into 4-Anilinoquinazolines as Inhibitors of Cardiac Troponin I–Interacting Kinase (TNNi3K)” (Molecules, 2020)

Assays:
Test in all cases: biochemical
Parameters in all cases: KINOMEscan competition binding panel (Eurofins DiscoverX), single concentration, percent inhibition
Details in all cases: read-out: 15 at 1 µM % inhibition
PIK3CA(E542K) = PIK3CA(E542K) (Homo sapiens, UniProt P42336, E542K)
Summary of the method: (§1)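 KINOMEscan selectivity screen; >400 human kinases; compound at 1 µM, single concentration.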

WNK4 = WNK4 (Homo sapiens, UniProt Q96J92)
Chain of WNK4 (Q96J92 whole entry): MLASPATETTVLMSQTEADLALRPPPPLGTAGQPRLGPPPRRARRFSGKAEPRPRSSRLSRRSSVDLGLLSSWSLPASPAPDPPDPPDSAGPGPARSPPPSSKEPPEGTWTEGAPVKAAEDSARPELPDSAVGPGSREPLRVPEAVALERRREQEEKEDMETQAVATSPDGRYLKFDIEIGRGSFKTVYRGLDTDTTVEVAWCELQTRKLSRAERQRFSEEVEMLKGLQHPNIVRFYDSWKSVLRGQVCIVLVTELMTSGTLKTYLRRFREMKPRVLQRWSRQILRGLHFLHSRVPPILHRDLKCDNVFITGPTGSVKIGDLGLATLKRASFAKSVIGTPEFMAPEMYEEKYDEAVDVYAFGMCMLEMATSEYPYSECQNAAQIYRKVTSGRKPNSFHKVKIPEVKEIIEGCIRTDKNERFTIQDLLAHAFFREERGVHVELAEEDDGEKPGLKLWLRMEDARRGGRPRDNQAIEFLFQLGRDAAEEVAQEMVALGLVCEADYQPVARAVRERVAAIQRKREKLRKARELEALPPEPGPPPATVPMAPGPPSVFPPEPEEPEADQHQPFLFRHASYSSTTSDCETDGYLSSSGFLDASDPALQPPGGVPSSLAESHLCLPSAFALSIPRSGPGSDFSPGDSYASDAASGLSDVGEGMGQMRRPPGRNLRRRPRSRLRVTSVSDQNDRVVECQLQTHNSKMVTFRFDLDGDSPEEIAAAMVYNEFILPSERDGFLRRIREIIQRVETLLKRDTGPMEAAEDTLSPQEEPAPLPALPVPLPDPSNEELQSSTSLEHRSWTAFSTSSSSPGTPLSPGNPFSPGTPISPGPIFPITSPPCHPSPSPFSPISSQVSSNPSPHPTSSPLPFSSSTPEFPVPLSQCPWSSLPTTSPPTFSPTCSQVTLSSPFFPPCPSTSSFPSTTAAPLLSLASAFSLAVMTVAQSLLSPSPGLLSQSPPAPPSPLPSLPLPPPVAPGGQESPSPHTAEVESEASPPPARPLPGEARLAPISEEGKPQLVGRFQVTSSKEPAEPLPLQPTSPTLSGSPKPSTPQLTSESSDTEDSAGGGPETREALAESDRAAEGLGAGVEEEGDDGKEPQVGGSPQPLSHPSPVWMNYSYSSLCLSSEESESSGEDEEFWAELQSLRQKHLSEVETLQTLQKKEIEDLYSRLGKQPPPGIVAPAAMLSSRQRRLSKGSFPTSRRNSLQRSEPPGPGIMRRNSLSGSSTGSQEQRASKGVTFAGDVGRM
Summary of the method: as §1

[1] = biological target: EGFR(L747-E749del, A750P) (Homo sapiens, UniProt P00533, A750P/DEL747-749)
Summary of the method: as §1

CDKL5 = CDKL5 (Homo sapiens, UniProt O76039)
Summary of the method: as §1

STK16 = STK16 (Homo sapiens, UniProt O75716)
Chain of STK16 (O75716 whole entry): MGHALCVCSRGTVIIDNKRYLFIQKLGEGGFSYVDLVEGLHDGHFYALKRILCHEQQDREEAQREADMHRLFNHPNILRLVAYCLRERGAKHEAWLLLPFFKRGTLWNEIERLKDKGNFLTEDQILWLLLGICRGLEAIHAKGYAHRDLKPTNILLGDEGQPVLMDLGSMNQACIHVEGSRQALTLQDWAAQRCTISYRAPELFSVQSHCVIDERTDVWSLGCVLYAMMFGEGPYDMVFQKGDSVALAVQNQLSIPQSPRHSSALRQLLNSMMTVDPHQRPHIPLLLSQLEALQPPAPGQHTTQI
Summary of the method: as §1

PIM3 = PIM3 (Homo sapiens, UniProt Q86V86)
Summary of the method: as §1

CSNK2A1 = CSNK2A1 (Homo sapiens, UniProt P68400)
Chain of CSNK2A1 (P68400 whole entry): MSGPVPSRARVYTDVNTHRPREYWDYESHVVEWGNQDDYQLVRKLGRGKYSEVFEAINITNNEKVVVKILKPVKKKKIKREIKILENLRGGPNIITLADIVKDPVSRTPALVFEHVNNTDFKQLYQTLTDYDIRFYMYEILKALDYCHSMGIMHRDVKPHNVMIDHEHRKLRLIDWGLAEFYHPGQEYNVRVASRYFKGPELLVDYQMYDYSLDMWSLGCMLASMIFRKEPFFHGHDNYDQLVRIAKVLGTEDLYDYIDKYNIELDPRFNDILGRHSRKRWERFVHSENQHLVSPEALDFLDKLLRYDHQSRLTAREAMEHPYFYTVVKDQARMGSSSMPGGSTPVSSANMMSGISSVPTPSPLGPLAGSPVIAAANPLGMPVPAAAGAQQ
Summary of the method: as §1

TRKB = biological target: T1, TRKB (Homo sapiens, UniProt Q16620)
T1 construct: gene NTRK2
T1 sequence (Q16620 whole entry): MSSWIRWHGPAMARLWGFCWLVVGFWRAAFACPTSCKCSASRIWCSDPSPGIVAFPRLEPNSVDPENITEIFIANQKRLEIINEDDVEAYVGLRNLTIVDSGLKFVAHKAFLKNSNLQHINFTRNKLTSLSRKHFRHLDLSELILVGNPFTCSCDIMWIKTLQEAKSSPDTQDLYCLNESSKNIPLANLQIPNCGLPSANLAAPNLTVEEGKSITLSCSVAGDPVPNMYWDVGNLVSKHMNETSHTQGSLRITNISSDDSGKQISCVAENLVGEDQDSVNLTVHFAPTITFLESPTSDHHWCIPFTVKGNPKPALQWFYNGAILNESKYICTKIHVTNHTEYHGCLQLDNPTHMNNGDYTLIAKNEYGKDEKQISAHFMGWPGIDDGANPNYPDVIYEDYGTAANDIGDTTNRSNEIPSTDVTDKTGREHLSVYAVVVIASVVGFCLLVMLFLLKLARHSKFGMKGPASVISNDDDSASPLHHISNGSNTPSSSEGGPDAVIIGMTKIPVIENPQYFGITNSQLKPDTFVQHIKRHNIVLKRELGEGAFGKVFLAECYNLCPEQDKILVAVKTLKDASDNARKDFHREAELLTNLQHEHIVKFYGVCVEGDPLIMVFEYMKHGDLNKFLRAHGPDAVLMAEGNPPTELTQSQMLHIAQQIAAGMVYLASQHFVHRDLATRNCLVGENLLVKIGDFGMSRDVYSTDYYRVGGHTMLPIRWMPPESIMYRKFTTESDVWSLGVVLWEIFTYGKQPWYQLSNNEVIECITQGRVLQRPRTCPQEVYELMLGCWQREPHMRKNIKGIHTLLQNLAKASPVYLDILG
Summary of the method: as §1

BUB1 = BUB1 (Homo sapiens, UniProt O43683)
Summary of the method: as §1

NDR2 = biological target: T2, NDR2 (Homo sapiens, UniProt Q9Y2H1)
T2 construct: gene STK38L
Summary of the method: as §1

FLT3(ITD,F691L) = FLT3(ITD,F691L) (Homo sapiens, UniProt P36888, F691L/ITD)
Summary of the method: as §1

IRAK4 = IRAK4 (Homo sapiens, UniProt Q9NWZ3)
Summary of the method: as §1

YSK1 = biological target: T3, YSK1 (Homo sapiens, UniProt O00506)
T3 construct: gene STK25
Summary of the method: as §1

MEK4 = biological target: T4, MEK4 (Homo sapiens, UniProt P45985)
T4 construct: gene MAP2K4
Summary of the method: as §1

HASPIN = HASPIN (Homo sapiens, UniProt Q8TF76)
Chain of HASPIN (Q8TF76 whole entry): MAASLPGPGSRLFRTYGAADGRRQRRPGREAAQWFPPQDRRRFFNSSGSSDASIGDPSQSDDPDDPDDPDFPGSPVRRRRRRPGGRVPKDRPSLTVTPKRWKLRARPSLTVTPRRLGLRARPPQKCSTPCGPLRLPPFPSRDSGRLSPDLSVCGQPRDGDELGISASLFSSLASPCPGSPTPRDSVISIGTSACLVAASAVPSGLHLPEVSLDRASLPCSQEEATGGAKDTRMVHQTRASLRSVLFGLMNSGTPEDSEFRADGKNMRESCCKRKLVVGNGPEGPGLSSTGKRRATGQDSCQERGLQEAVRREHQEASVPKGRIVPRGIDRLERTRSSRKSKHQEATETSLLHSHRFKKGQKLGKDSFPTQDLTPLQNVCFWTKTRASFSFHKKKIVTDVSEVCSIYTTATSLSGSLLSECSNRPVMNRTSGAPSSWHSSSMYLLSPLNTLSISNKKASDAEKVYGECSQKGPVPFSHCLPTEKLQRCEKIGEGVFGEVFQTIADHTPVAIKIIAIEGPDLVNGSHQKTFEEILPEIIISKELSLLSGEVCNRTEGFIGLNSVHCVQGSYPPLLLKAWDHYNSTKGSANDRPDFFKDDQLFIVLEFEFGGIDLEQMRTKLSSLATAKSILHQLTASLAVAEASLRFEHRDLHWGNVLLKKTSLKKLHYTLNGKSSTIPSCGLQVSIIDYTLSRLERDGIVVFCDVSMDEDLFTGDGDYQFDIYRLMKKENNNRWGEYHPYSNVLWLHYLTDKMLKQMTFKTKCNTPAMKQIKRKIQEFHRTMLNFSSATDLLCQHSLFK
Summary of the method: as §1

GSK3A = GSK3A (Homo sapiens, UniProt P49840)
Summary of the method: as §1

JNK3 = biological target: T5, JNK3 (Homo sapiens, UniProt P53779)
T5 construct: gene MAPK10
T5 sequence (P53779 whole entry): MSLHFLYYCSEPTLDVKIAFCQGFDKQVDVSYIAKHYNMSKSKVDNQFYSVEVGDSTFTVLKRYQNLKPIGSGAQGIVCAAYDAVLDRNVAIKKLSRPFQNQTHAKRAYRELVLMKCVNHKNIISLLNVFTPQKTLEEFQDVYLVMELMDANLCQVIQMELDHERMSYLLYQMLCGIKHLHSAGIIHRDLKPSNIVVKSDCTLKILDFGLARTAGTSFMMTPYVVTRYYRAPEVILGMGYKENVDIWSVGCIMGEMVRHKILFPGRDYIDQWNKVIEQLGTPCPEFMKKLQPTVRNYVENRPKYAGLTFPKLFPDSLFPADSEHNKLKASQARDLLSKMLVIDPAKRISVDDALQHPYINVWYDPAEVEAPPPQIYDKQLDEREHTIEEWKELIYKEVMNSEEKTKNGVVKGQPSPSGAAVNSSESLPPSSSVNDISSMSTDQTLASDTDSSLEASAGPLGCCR
Summary of the method: as §1

FES = FES (Homo sapiens, UniProt P07332)
Summary of the method: as §1

CAMK2B = CAMK2B (Homo sapiens, UniProt Q13554)
Summary of the method: as §1

JNK2 = biological target: T6, JNK2 (Homo sapiens, UniProt P45984)
T6 construct: gene MAPK9
T6 sequence (P45984 whole entry): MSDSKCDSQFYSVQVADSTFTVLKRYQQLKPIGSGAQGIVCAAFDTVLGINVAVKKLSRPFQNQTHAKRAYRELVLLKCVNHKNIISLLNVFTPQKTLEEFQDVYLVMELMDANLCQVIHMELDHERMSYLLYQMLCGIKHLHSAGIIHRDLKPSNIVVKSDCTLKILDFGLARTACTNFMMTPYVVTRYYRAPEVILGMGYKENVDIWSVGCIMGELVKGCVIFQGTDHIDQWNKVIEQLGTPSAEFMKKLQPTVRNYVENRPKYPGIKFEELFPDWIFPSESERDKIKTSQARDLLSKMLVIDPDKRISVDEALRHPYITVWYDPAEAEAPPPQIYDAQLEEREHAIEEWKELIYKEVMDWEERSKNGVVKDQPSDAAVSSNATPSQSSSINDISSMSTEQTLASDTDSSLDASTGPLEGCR
Summary of the method: as §1

PIK3CA(E545A) = PIK3CA(E545A) (Homo sapiens, UniProt P42336, E545A)
Summary of the method: as §1

RIOK1 = RIOK1 (Homo sapiens, UniProt Q9BRS2)
Chain of RIOK1 (Q9BRS2 whole entry): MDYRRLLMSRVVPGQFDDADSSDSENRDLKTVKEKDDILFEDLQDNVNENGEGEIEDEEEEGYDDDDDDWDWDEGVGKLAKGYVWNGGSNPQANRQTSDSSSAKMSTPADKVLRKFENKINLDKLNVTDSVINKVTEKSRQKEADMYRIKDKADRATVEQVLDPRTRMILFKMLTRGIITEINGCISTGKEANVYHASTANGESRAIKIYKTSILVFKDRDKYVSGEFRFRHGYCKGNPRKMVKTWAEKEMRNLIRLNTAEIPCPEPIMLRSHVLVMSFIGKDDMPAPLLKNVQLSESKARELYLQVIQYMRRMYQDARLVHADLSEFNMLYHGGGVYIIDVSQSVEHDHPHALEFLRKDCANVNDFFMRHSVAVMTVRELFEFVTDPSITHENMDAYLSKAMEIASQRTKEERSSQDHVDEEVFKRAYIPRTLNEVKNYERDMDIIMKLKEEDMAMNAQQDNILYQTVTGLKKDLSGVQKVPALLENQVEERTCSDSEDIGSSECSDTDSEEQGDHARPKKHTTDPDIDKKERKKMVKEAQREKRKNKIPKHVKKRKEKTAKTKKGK
Summary of the method: as §1

CAMK2A = CAMK2A (Homo sapiens, UniProt Q9UQM7)
Summary of the method: as §1

WNK3 = WNK3 (Homo sapiens, UniProt Q9BYP7)
Summary of the method: as §1

`CNS(=O)(=O)c1ccc(N(C)C)c(Nc2nc(C)nc3cc(OC)c(OC)cc23)c1` [compound 15, 3-((6,7-dimethoxy-2-methylquinazolin-4-yl)amino)-4-(dimethylamino)-N-methylbenzenesulfonamide] was tested, and the inhibition at 1 µM (PIK3CA(E542K)) was 22%, the inhibition at 1 µM (WNK4) was 0% and the inhibition at 1 µM [1] was 0%. It also gave an inhibition at 1 µM (CDKL5) of 19%, an inhibition at 1 µM (STK16) of 2% and an inhibition at 1 µM (PIM3) of 3%. The inhibition at 1 µM (CSNK2A1) was 18%, the inhibition at 1 µM (TRKB) was 22% and the inhibition at 1 µM (BUB1) was 7%. For the same compound, the inhibition at 1 µM (NDR2) was 6%, the inhibition at 1 µM (FLT3(ITD,F691L)) was 0% and the inhibition at 1 µM (IRAK4) was 0%. It also gave an inhibition at 1 µM (YSK1) of 13%, an inhibition at 1 µM (MEK4) of 25% and an inhibition at 1 µM (HASPIN) of 0%. The inhibition at 1 µM (GSK3A) was 0%, the inhibition at 1 µM (JNK3) was 0% and the inhibition at 1 µM (FES) was 0%. For the same compound, the inhibition at 1 µM (CAMK2B) was 0%, the inhibition at 1 µM (JNK2) was 4% and the inhibition at 1 µM (PIK3CA(E545A)) was 1%. The inhibition at 1 µM (RIOK1) was 0%, the inhibition at 1 µM (CAMK2A) was 4% and the inhibition at 1 µM (WNK3) was 0%.
